Experimental data as given in ChEMBL document CHEMBL5727960, “Wee-1 inhibiting pyrazolopyrimidinone compounds” (2020).

Target: Wee1-like protein kinase (Homo sapiens, UniProt P30291)
Assay: Kinase Activity Assay: All reactions took place in 60 μL volumes in reaction buffer containing 40 mM Tris-HCl and 20 mM magnesium chloride, supplemented with 0.1 mg/mL bovine serum albumin and 2 mM DTT. Compounds were serially diluted in buffer and 5 μL of each concentration pipetted into a white 384 well plate (Sigma Aldrich M6186). A 5 μL aliquot of the Wee-1 enzyme was added to each well and the plate centrifuged for 1 min to ensure mixing of the enzyme and inhibitor. The plate was incubated at room temperature for 30 minutes before the addition of 2.0 μg/mL of substrate and 30 μM ATP in a 5 μL aliquot. The plate was centrifuged for one minute and incubated for 1 h at RT. 15 μL of ADP-Glo stop reagent was added to each well to quench the reaction and deplete unconverted ATP. The plate was incubated for a further 40 min in the dark at RT. 30 μL of ADP-Glo kinase detection reagent was added to each well, converting ADP to ATP, […]. The plate was shaken for 1 min, and incubated in the dark for an additional hour.

Chain of Wee1-like protein kinase (P30291 whole entry): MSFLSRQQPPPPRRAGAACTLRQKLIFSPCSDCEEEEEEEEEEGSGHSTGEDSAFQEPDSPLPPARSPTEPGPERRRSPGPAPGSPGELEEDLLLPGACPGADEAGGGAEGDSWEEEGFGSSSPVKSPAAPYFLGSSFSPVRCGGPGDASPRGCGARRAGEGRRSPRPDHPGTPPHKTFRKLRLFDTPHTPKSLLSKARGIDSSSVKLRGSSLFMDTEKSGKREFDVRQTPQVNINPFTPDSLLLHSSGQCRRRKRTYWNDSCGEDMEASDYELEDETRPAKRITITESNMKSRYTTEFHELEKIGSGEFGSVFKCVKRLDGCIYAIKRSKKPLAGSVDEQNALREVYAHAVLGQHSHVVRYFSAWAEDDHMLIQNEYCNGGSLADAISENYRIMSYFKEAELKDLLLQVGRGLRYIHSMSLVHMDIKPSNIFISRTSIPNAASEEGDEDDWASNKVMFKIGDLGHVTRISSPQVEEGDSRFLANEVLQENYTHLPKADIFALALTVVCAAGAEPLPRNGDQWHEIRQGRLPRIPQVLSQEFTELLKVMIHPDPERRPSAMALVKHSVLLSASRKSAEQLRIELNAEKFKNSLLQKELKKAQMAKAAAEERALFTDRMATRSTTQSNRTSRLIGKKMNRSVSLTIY

Question: `C=CCn1c(=O)c2cnc(Nc3ccc(N4CCOCC4)nc3)nc2n1-c1cccc(N=S(C)(C)=O)n1` was tested. Which IC50 did it give?
Answer: Its IC50 is 0.8 nM.
